Experimental findings from ChEMBL document CHEMBL3507680, “University of Dundee, Gates Library screen for HepG2 cell viability” are described below.

This data set in a line: Human HepG2 cell viability assay in 384 well format. The conditions noted are these: HepG2 cells, read-out: Inhibition. Details: dose 125 nL, time 70.5 hour; cytotoxicity at 70.5 h: concentration not given beside the values. The format is toxicity, cell-based.

Consider `Cc1cccnc1NC(=O)CSc1ccc2c(c1)OCCO2`, for which the cytotoxicity at 70.5 h was -9.85%.

For `c1ccc(N2CCCC2)c(NCc2ccncc2)c1`, the cytotoxicity at 70.5 h was -39.9%.

`CS(=O)(=O)Cc1noc(CN2CCN(c3ccccc3Cl)CC2)n1`: the cytotoxicity at 70.5 h is -76.6%.

As to `OC(COc1ccccc1Br)COC1CCOCC1` (configuration not stated), the cytotoxicity at 70.5 h turned out to be 0.581%.

`CC(=O)NCCc1ccc(S(=O)(=O)Nc2cc(F)ccc2C)s1`: the cytotoxicity at 70.5 h is 3.63%.

`CC(C)c1ncc(Cl)c(C(=O)N2CCN(C3CC3)CC2)n1`: the cytotoxicity at 70.5 h is -7.86%.

As to `CCN(C(=O)Nc1nncs1)C(C)c1cccc(OC)c1` (configuration not stated), the cytotoxicity at 70.5 h was -9.86%.

`CCc1nc(CN2CCCCC2C(N)=O)cs1` (configuration not stated): the cytotoxicity at 70.5 h was -2.28%.

On to `CC(C)N(CCCNC(=O)C1CC1)S(C)(=O)=O`, for which the cytotoxicity at 70.5 h is -4.77%.

On to `CCOCCN1CCN(CC(O)c2ccc(F)cc2)CC1` (configuration not stated), for which the cytotoxicity at 70.5 h is -6.89%.

As for `CN1CCN(c2ccccc2NC(=O)NCC[S+](C)[O-])CC1` (configuration not stated), the cytotoxicity at 70.5 h is -7.57%.

With `CCOCCC(=O)Nc1ccnn1-c1ccc(Cl)cc1`, the cytotoxicity at 70.5 h is -3.17%.

For `COc1ccc(CSc2nnc(N)n2C2CC2)cc1Cl`, the cytotoxicity at 70.5 h is -8.32%.

Regarding `CN1CCN(c2ccc(F)cc2NC(=O)NCC[S+](C)[O-])CC1` (configuration not stated), the cytotoxicity at 70.5 h is -2.15%.

Consider `CN1CCN(c2ccccc2NC(=O)c2ccco2)CC1`, for which the cytotoxicity at 70.5 h is -6.77%.

Take `O=C1CN(C(=O)CN(CC2CCC2)CC(F)(F)F)CCN1`: the cytotoxicity at 70.5 h is -9.35%.

On to `CCc1nc(C(=O)N2CCN(C)c3ccccc32)c[nH]1`, for which the cytotoxicity at 70.5 h was -9.6%.

With `CN(Cc1nnn(CC2CCC2)n1)C(=O)c1ccccc1`, the cytotoxicity at 70.5 h is -2.78%.

As for `Cc1cnc(CCN(C)C(=O)c2ccc(O)nc2C)s1`, the cytotoxicity at 70.5 h is -2.62%.

Turning to `Cc1cnc(CCN(C)C(=O)c2cccc(C)c2O)s1`, the cytotoxicity at 70.5 h is -5.87%.

Turning to `CCOc1ccc(CSC(C)c2nc(C)no2)nc1` (configuration not stated), the cytotoxicity at 70.5 h is -6.64%.

Turning to `CCc1nc(CN2CCCC2C(=O)NC2CC2)cs1` (configuration not stated), the cytotoxicity at 70.5 h was -7.43%.

For the molecule `CN1CCN(c2ncc(CNCCCc3cccc(F)c3)cn2)CC1`, the cytotoxicity at 70.5 h amounted to 25.4%.

For the molecule `COc1c(C)cnc(CN2CCCC(c3noc(C4CC4)n3)C2)c1C` (configuration not stated), the cytotoxicity at 70.5 h amounted to 7.81%.

Regarding `Cc1ccc(S(=O)(=O)N(CC2CCOC2)C2CC2)cc1N(C)C` (configuration not stated), the cytotoxicity at 70.5 h worked out at 0.338%.

For `N#Cc1ccc(CN(CCF)Cc2cccc(F)c2)cc1`, the cytotoxicity at 70.5 h came out at 6.81%.

`CSCCC(NC(=O)C1CC1)C(=O)N(C)Cc1ccsc1` (configuration not stated): the cytotoxicity at 70.5 h worked out at 10.7%.

With `CN(Cc1nc(N)nc(N(C)C)n1)Cc1cccc2ccccc12`, the cytotoxicity at 70.5 h was -10.6%.

Regarding `CNC(=O)NC(=O)CN(Cc1ccc(C#N)cc1)Cc1cccc(F)c1`, the cytotoxicity at 70.5 h was -2.77%.

In the case of `O=C(CCN1CCOCC1)Nc1cccc(CNCc2cccs2)c1`, the cytotoxicity at 70.5 h is -8.33%.

As to `Cc1ccc(CNCc2cccc(NC(=O)CCN3CCOCC3)c2)s1`, the cytotoxicity at 70.5 h was -5.6%.

`COc1ccc(CCn2cnc(C#N)n2)cc1`: the cytotoxicity at 70.5 h is -12.6%.

Take `CC(C)N(Cc1ccccn1)C(=O)CCC(=O)c1ccccc1`: the cytotoxicity at 70.5 h was -7.32%.

As to `COCCOCC(=O)Nc1nc2c(OC)cc(F)cc2s1`, the cytotoxicity at 70.5 h was -8.97%.

`Cc1nc(C(C)C)sc1C(=O)NS(=O)(=O)c1ccc(C#N)cc1`: the cytotoxicity at 70.5 h is -9.15%.

With `O=C1NCCN1C1CCN(Cc2ccccn2)CC1`, the cytotoxicity at 70.5 h is -5.43%.

Turning to `Cc1nc(CN(C)C(=O)Nc2cnn(CC3CCCO3)c2)cs1` (configuration not stated), the cytotoxicity at 70.5 h is -1.56%.

Turning to `CN(CCOc1cccc(CNC(=O)C2CC2)c1)C1CCOCC1`, the cytotoxicity at 70.5 h was -8.5%.

For `CCOCC(O)CN1CCN(C(=O)c2ccnc(N(C)C)c2)CC1` (configuration not stated), the cytotoxicity at 70.5 h is -6.8%.

Consider `CCNC(=O)N1CCCCC1CCO` (configuration not stated), for which the cytotoxicity at 70.5 h was determined as 12.6%.

In the case of `CN(Cc1cnccn1)C(=O)c1ccnc(OC2CCC2)c1`, the cytotoxicity at 70.5 h is -9.6%.

Consider `Cc1cnn(CC2CCCN2CC(=O)N(C)Cc2ccc(C)o2)c1` (configuration not stated), for which the cytotoxicity at 70.5 h was -7.64%.

Regarding `CCOCC(O)CN1CCN(C(=O)c2cccc(F)c2)CC1` (configuration not stated), the cytotoxicity at 70.5 h is -7.93%.

With `O=C(CN1CCc2ccccc21)Nc1ccc(OC(F)F)cc1`, the cytotoxicity at 70.5 h is 9.55%.

Turning to `O=C1CN(Cc2nnc(-c3ccc(Br)cc3)o2)CCN1`, the cytotoxicity at 70.5 h stood at 4.44%.

Turning to `Cn1cnc(S(=O)(=O)N2CCCC2)c1Cl`, the cytotoxicity at 70.5 h is -10.3%.

For `CCN1CCN(S(=O)(=O)c2ncn(C)c2Cl)CC1`, the cytotoxicity at 70.5 h was -8.62%.

Take `CC(CNC(=O)c1ccc(F)cc1Cl)N1CCCC1` (configuration not stated): the cytotoxicity at 70.5 h is -7.32%.

With `O=C1CN(Cc2nnc(-c3ccccc3Br)o2)CCN1`, the cytotoxicity at 70.5 h was -6.27%.

Turning to `O=C(NCc1ccoc1)Nc1ccc(CN2CCOC2=O)cc1`, the cytotoxicity at 70.5 h worked out at 19%.

Consider `NC(=O)CN1CCCN(C(=O)c2ccn(-c3ccccc3)n2)CC1`, for which the cytotoxicity at 70.5 h was -3.77%.

Take `OC1CCN(Cc2cc3c(cc2Br)OCCO3)CC1`: the cytotoxicity at 70.5 h worked out at 0.754%.

For `CCc1nnc2n1CCN(C(=O)c1csc(-c3cnn(C)c3)n1)C2`, the cytotoxicity at 70.5 h is -6.07%.

With `COCCN(Cc1ccc(F)cc1Cl)C(=O)c1ccc(=O)[nH]n1`, the cytotoxicity at 70.5 h was -3.15%.

`O=C(NCCO)Nc1cccc(Cl)c1SC(F)F`: the cytotoxicity at 70.5 h is 16.9%.

With `COc1ccccc1OCC(=O)Nc1ncccc1OC(F)F`, the cytotoxicity at 70.5 h was -7.67%.

With `Cc1cc(CN2CCc3nn(C)c(=O)cc3C2)on1`, the cytotoxicity at 70.5 h turned out to be 3.7%.

Turning to `Cn1c(CNc2c(F)cccc2-n2cccn2)cc(=O)n(C)c1=O`, the cytotoxicity at 70.5 h stood at 0.334%.

For `Cc1ccc(CC(=O)N2CCOC(c3nc(C)n[nH]3)C2)cn1` (configuration not stated), the cytotoxicity at 70.5 h was -4.16%.

Regarding `O=C(CSc1ccc2c(c1)OCCO2)NS(=O)(=O)C1CCCCC1`, the cytotoxicity at 70.5 h is 0.938%.

`Cc1ccccc1S(=O)(=O)NC(=O)CSc1ccc2c(c1)OCCO2`: the cytotoxicity at 70.5 h is -4.74%.

For `O=C(Nc1ccnc(OC2CCOC2)c1)c1cc(F)ccc1F` (configuration not stated), the cytotoxicity at 70.5 h is 14.1%.

Take `CCNS(=O)(=O)c1ccc(C)c(C(=O)N(C)Cc2ccco2)c1`: the cytotoxicity at 70.5 h is -5.04%.

In the case of `Cc1cnn(CCC(=O)N2CCOC(c3nc(C(C)(C)C)n[nH]3)C2)c1` (configuration not stated), the cytotoxicity at 70.5 h stood at 15.8%.

Turning to `Cc1occc1C(=O)Nc1ccnc(OC2CCOC2)c1` (configuration not stated), the cytotoxicity at 70.5 h was -7.45%.

As for `O=C(c1ccc(Br)s1)N1CCN(Cc2ccc(OC(F)(F)F)cc2)CC1`, the cytotoxicity at 70.5 h stood at 1.44%.

As for `CCc1nc(CN2CCCN(Cc3cnn(C)c3)CC2)no1`, the cytotoxicity at 70.5 h turned out to be 0.0385%.

Regarding `O=C(c1cc(Cl)cc(Cl)c1)N1CCN(c2nccs2)CC1`, the cytotoxicity at 70.5 h was -1.02%.

Turning to `CC(C)NC(=O)NCCCc1cc(N)n(-c2ccccc2)n1`, the cytotoxicity at 70.5 h is 15.9%.

Turning to `Nc1cc(CCCNC(=O)NC2CC2)nn1-c1ccccc1`, the cytotoxicity at 70.5 h was -2.83%.

As for `O=C(c1cc(Cl)c2c(c1)OCO2)N1CCN(c2nccs2)CC1`, the cytotoxicity at 70.5 h was found to be 1.39%.

Take `Cc1nn(C)c(N(C)C)c1CNCC(O)COc1ccc(F)cc1` (configuration not stated): the cytotoxicity at 70.5 h is 2.45%.

`CC1(NC(=O)Cc2csc(C(C)(C)C)n2)CCS(=O)(=O)C1` (configuration not stated): the cytotoxicity at 70.5 h is 18.9%.

For `COc1ccc(NC(=O)NC(C)(C)c2noc(C)n2)cc1`, the cytotoxicity at 70.5 h was 0.532%.

Regarding `CC(C#N)CSc1ccccc1NCC(=O)NCc1ccccc1` (configuration not stated), the cytotoxicity at 70.5 h was 4.47%.

As to `CC(C)CNC(=O)NC(=O)CNc1ccccc1SCC(C)C#N` (configuration not stated), the cytotoxicity at 70.5 h was -2.52%.

As for `Cc1cnn(CC2CCCN2Cc2coc(-c3cccs3)n2)c1` (configuration not stated), the cytotoxicity at 70.5 h was -0.977%.

Take `COCC(NC(=O)c1ccc[nH]1)c1cccc(C(F)(F)F)c1` (configuration not stated): the cytotoxicity at 70.5 h is 17.9%.

On to `CCn1nc2c(cc1=O)CN(Cc1nc(N)c3ccccc3n1)CC2`, for which the cytotoxicity at 70.5 h is -2.07%.

Regarding `NC(=O)CCOc1nc(-c2ccccc2Cl)no1`, the cytotoxicity at 70.5 h came to 16.5%.

In the case of `O=C(NCC(F)F)N1CCC(n2ccc(C(F)(F)F)n2)CC1`, the cytotoxicity at 70.5 h was determined as 2.24%.

For the molecule `CN(CCC(F)(F)F)C(=O)[C@H]1CSCN1C(=O)OC(C)(C)C`, the cytotoxicity at 70.5 h was -1.73%.

For `CCOCCN1CCN(Cc2nnc(C3CC3)o2)CC1CC` (configuration not stated), the cytotoxicity at 70.5 h amounted to 13.5%.

On to `COc1ccc(NC(C)C(=O)N2CCN(Cc3ccccc3)CC2)cn1` (configuration not stated), for which the cytotoxicity at 70.5 h is -10%.

For `CCc1ncc2c(n1)CN(Cc1nnc(C)o1)CC2`, the cytotoxicity at 70.5 h is -8.24%.

On to `Cc1cnn(CC2CCCN2Cc2coc(-c3ccccc3)n2)c1` (configuration not stated), for which the cytotoxicity at 70.5 h worked out at 13.5%.

As for `CCc1noc(C(C)N(C)CC(=O)Nc2cccc(C)n2)n1` (configuration not stated), the cytotoxicity at 70.5 h was -6.94%.

Take `CCc1nc(CN2CCCC(N(C)Cc3cnn(C)c3)C2)no1` (configuration not stated): the cytotoxicity at 70.5 h is -10.2%.

In the case of `CN(Cc1cccs1)C(=O)CN1CCCC1Cn1cncn1` (configuration not stated), the cytotoxicity at 70.5 h amounted to 2.88%.

As for `CCc1nc(CN2CCCN(c3ncnc4ccccc34)CC2)no1`, the cytotoxicity at 70.5 h is 40.8%.

As for `CC(C)c1noc(CN(Cc2ccccc2F)C2CC2)n1`, the cytotoxicity at 70.5 h is -12%.

For the molecule `COc1cc(NC(=O)c2cc(C)sc2C)c(C(=O)N(C)C)cc1OC`, the cytotoxicity at 70.5 h is -19.4%.

Turning to `CC(C)Cc1noc(CN2CCC(NC(=O)c3cccs3)CC2)n1`, the cytotoxicity at 70.5 h was -8.58%.

On to `Cc1c(CC(=O)N2CCN(CC(F)(F)F)CC2)nnn1-c1ccccc1`, for which the cytotoxicity at 70.5 h is -11.3%.

Turning to `NS(=O)(=O)CCNC(=O)C1(c2ccc(Br)cc2)CC1`, the cytotoxicity at 70.5 h is -10.5%.

For `Cc1cc(CN2CC[C@H]3C[C@@H](C)O[C@@H]3C2)no1`, the cytotoxicity at 70.5 h is -7.88%.

With `Cn1cc(N2CCC3(CCCN(Cc4ccoc4)C3)C2=O)cn1` (configuration not stated), the cytotoxicity at 70.5 h was -6.63%.

For the molecule `O=C(c1ccco1)N1C[C@H]2CN(Cc3cccc(F)c3)C(=O)[C@H]2C1`, the cytotoxicity at 70.5 h is -7.79%.

Consider `O=C(c1ccnnc1)N1C[C@H]2CN(Cc3cccc(F)c3)C(=O)[C@H]2C1`, for which the cytotoxicity at 70.5 h is -13.7%.

`Cc1nn(C)c(N(C)C)c1CNCC(O)COc1ccccc1` (configuration not stated): the cytotoxicity at 70.5 h was -0.0724%.

For `O=C(Cc1ccccc1)N1CCC2(CC1)COCCN2CC1CC1`, the cytotoxicity at 70.5 h was -9.82%.

Regarding `Fc1cccc(CN2C[C@@H]3COC[C@]3(COCc3ccncc3)C2)c1`, the cytotoxicity at 70.5 h was -1.32%.
